Assays:
HME-RhoC cells [1] = experiment: Apoptosis / cell population of cells treated with thiopurines; type: cell-based, human; settings: not shown
RhoC [2] = molecular target: T1, RhoC (Homo sapiens, UniProt P08134); experiment: Redox agent-mediated 6-TGDP dissociation (FIG. 16C); type: biochemical; set-up: made in house; host or cells: E. coli; settings: 6-TGDP-loaded RhoC treated with redox agent, free [3H]GDP 10 μM
Description: (§1) FIG. 16. Kinetic properties of RhoC with 6-TGDP in the presence or absence of a redox agent. All kinetic analyses are described elsewhere herein. (A) ^appKD values of Rac1, RhoA, RhoC, and RhoC C20S for 6-TGDP were estimated to be 7.9, 11.6, 11.8, and 11.2 μM, respectively. ^trueKD values of Rac1, RhoA, […] for 6-TGDP were then calculated to be 5.1, 10.8, 11.1, and 10.5 μM, respectively, by using a compensation equation, ^trueKD for 6-TGDP=^appKD for 6-TGDP/(1+[[^3H]GDP]/^trueKD for GDP) (Heo, J., and Hong, I. (2010) Biochemistry 49, 3965-3976), in conjunction with the values given. […] The GDP dissociation rates from RhoC C20S by NO, .NO2, and N2O3 were estimated to be 0.02×10^−3, 0.05×10^−3, and 0.04×10^−3 s^−1, respectively. […] (D) ^appKD values of RhoC for [^3H]GDP in the presence or absence of DTT were estimated to be 22.4 μM and […], respectively. ^appKD values of C20S RhoC for [^3H]GDP in the presence or absence of DTT were determined to be 24.8 μM and 25.2 μM, respectively. The regression values associated with these fits were >0.8595. All data points associated with vertical standard error bars shown in this figure are the mean values of triplicate measurements.
(§2) Transition metal-free assay buffer and vials as described in a previous study (Heo et al. Biochemistry 49, 3965-3976 (2010)) were used for all kinetic assays. The kinetic assay buffer contains the highest grade of 50 mM NaCl, 10 mM MgCl2, 1 mM EDTA, and 0.1 mM DTPA in 50 mM TrisHCl (pH 7.4). Before performance of any of the assays, all protein samples also were dialyzed with a metal-free buffer under anaerobic conditions. As with RhoA and Rac1 (Heo et al. J. Biol. Chem. 280, 31003-31010 (2005)), C20S RhoC were expressed in E. coli and purified using anionic and size exclusion columns.
(§3) (c) To test the Rho 6-TGDP-binding interaction in the presence of redox agents, the 6-TGDP-loaded RhoC protein was treated with redox agents in the presence of free […] (10 μM). An association of RhoC protein with [^3H]GDP to produce a RhoC-[^3H]GDP complex will occur proportionally after RhoC releases 6-TGDP through the action of redox agents. Therefore, the fraction of the redox agent-mediated release of the bound 6-TGDP per Rho protein over time can be deduced by determination of the RhoC-bound [^3H]GDP, where the quantity of RhoC-bound 6-TGDP equals 1 minus the determined fraction of the RhoC-bound [^3H]GDP as described in Section (b). The estimated data associated with the quantity of RhoC-bound 6-TGDP then was fitted to a one-phase exponential decay; Prism software was used to derive the rate of 6-TGDP dissociation from RhoC.

RhoC C20S [3] = molecular target: T2, RhoC C20S (Homo sapiens, UniProt P08134, C20S); experiment: as above; type: biochemical; set-up: made in house; host or cells: E. coli; settings: 6-TGDP-loaded RhoC C20S treated with redox agent, free [3H]GDP 10 μM
T2 sequence (P08134 whole entry C20S): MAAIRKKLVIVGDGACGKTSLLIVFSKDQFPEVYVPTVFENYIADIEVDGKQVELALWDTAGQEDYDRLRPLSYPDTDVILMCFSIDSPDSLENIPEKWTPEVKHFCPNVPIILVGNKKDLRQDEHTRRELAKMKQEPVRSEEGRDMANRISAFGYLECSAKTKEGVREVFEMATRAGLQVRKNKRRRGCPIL
Description: as §1, §2, §3

RhoC [4] = molecular target: T1, RhoC; experiment: Redox agent-mediated GDP dissociation (FIG. 16B); type: biochemical; set-up: made in house; host or cells: E. coli; settings: [3H]GDP-loaded RhoC 1 μM, redox agent ~3 μM, free GDP 10 μM, anaerobic
Description: as §1, §2
(§4) (b) The effect of redox agents such as NO, .NO2, and N2O3 on the binding interaction between RhoC proteins and GDP or 6-TGDP was examined under N2-filled serum-stoppered anaerobic experimental conditions (O2<3 ppm). These anaerobic experimental conditions were necessary to block the reaction of NO or .NO2 with O2 to produce higher oxides. The contents of NO and .NO2, respectively, in the sealed assay vials were determined by using a hemoglobin assay and NO2^−/NO3^− Assay Kit-C II (Dojindo) under anaerobic conditions (Heo et al. J. Biol. Chem. 280, 31003-31010 (2005); Heo et al. Biochemistry 43, 2314-2322 (2004)). N2O3 was generated by mixing NO and .NO2 1:1 stoichiometrically. […] The fraction of the redox agent-mediated release of the bound [^3H]GDP per Rho protein over time was determined as noted above, and the result was plotted against time. The rates of RhoC GDP dissociation in the presence of redox agents were determined by using Prism software to fit the result to a one-phase exponential decay.

RhoC C20S [5] = molecular target: T2, RhoC C20S; experiment: Redox agent-mediated GDP dissociation (FIG. 16B); type: biochemical; set-up: made in house; host or cells: E. coli; settings: [3H]GDP-loaded protein 1 μM, redox agent ~3 μM, free GDP 10 μM, anaerobic
Description: as §1, §2, §4

RhoC [6] = molecular target: T1, RhoC; experiment: RhoC expression (Western) and RhoC activity assay in cells; type: cell-based; set-up: endogenous in cells; host or cells: SUM149, SUM102, SW480, HCCLM3 (endogenous); HME-RhoC (transfected with wild type RhoC); settings: SUM149 and HME-RhoC cells, NO donor alone, three days
Description: (§5) FIG. 14. Determination of cell invasiveness in the presence and absence of thiopurines and/or redox agents. […] Western blot analysis representing the total expression of RhoC in these cells also is shown. (B) Experimental procedures for the determination of the time-dependent motility of cells using the QCM Cell Invasion Assay kit in the presence and absence of 6-TG and DETA/NO are described elsewhere herein.
(§6) Cells were lysed in an extraction buffer containing 50 mM NaCl, 5 mM MgCl2, 1 mM ethylenediaminetetraacetic acid (EDTA), 0.1 mM diethylenetriaminepentaacetic acid (DTPA), and 0.1% NP40 in 150 mM TrisHCl (pH 8.0). The content of […] RhoC in cells then was determined by using Western analysis that relies on a monoclonal anti-RhoC antibody (Biocompare, South San Francisco, Calif.). To determine RhoC activity, the colorimetric RhoA activation assay Biochem Kit (Cytoskeleton, Denver, Colo.) was used essentially as described in the previous study (Hall et al. Neoplasia 10, 797-803 (2008)) except that the RhoC specific antibody (vide supra), instead of the RhoA antibody included in the assay kit, was used for this analysis.

RhoC C20S [7] = molecular target: T2, RhoC C20S; experiment: as above; type: cell-based; set-up: expressed in transfected cells; host or cells: human mammary epithelial (HME) cells; settings: HME-C20S RhoC cells, NO donor alone, three days
Description: as §5, §6

SUM149 cells [8] = experiment: Matrigel invasion (cell motility) assay; type: cell-based, human; settings: NO donor alone 10 μM, three days continuous; FIG. 14A
Excerpt: as §5
(§7) The top chamber of a Transwell filter (6.5 mm with 8 μm pores, Costar; Corning, N.Y.) was coated with a 10 μL aliquot of 10 mg/mL Matrigel, and the lower chamber of the Transwell was filled with either serum-free or serum-containing media. Sample cells were prepared to resuspend cells in a serum-free medium with 0.1% BSA at a concentration of 4×10^5 cells/mL. […] The Transwell filters were fixed with methanol, stained with haematoxylin and eosin, and cells in the serum-containing samples were counted. The number of cells that had invaded the serum-free, medium-containing lower chambers was used as a control background.

HME-C20S RhoC cells [9] = experiment: Matrigel invasion (cell motility) assay; type: cell-based, human; settings: NO donor alone 10 μM, three days continuous; FIG. 14A
Excerpt: as §5, §7

HME-RhoC cells [10] = experiment: Matrigel invasion (cell motility) assay; type: cell-based, human; settings: NO donor alone 10 μM, three days continuous; FIG. 14A
Description: FIG. 5. Determination of cell invasiveness in the presence and absence of 6-thiopurine and/or a redox agent. The top chamber of a Transwell filter (6.5 mm with 8 μm pores, Costar; Corning, N.Y.) was coated with a 10 μL aliquot of 10 mg/mL Matrigel (BD Biosciences, Bedford Mass.), and the lower chamber of the Transwell was filled with either serum-free or serum-containing media. Sample cells (e.g., 6-TG-resistant HME-RhoC cells) were prepared to resuspend cells in a serum-free medium with 0.1% BSA at a concentration of 4×10^5 cells/mL. At this point, neither 6-thiopurine nor GSNO were added to the cells. The sample cells (0.5 mL) were added to the top chamber of a Transwell filter and were incubated for 24 h at 37° C. in a 10% CO2 incubator. The Transwell filters were fixed with methanol, stained with H&E, and cells in the serum-containing samples were counted. The number of cells that had invaded the serum-free medium-containing lower chambers was used as a control background. Results are given as percent invasion over that seen in HME-RhoC cells (100%) and represent mean and standard error values from triplicate measurements.
FIG. 11. Determination of cell invasiveness in the presence and absence of […] and/or a redox agent. […] The number of cells that had invaded the serum-free medium-containing lower chambers was used as a control background. Results are given as percent invasion over that seen in HME-RhoC cells (100%) and represent mean and standard error values from triplicate measurements.
as §5, §7

HME-RhoC cells [11] = experiment: MTT cell viability and caspase-3/8 assays; type: cell-based, human; settings: NO donor alone; FIG. 25
Excerpt: (§8) FIG. 25. […] (B) Caspase-3/8 assay: the apoptotic activity of sample cells treated with the apoptotic inducer was set to be 100%, and other results were then expressed as normalized values against the mean value associated with the treatment with the apoptotic inducer. For both (A) and (B), all values represent the mean values and standard error values from triplicate measurements.

SUM149 cells [12] = experiment: MTT cell viability and caspase-3/8 assays; type: cell-based, human; settings: NO donor alone; FIG. 25
Excerpt: as §8

HME-C20S RhoC cells [13] = experiment: MTT cell viability and caspase-3/8 assays; type: cell-based, human; settings: NO donor alone; FIG. 25
Excerpt: as §8

RhoA = molecular target: T3, RhoA (Rattus norvegicus, UniProt P61589); experiment: RhoA expression (Western) and RhoA G-LISA activity in A7r5 cells; type: cell-based
T3 construct: endogenous in cells; host or cells: A7r5 cells (rat aortic vascular smooth muscle)
T3 sequence (P61589 whole entry): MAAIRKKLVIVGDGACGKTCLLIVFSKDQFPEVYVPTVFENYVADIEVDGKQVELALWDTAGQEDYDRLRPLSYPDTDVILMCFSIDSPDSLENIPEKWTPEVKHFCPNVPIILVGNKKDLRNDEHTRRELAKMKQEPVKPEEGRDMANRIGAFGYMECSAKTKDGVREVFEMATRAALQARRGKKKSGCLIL
Description: (§9) FIG. 20. Determination of RhoA activity and MLC phosphorylation. […] Cell lysates in a buffer containing 1% NP-40, 10 mM EDTA, and 20 mM TrisHCl (pH 7.4) were centrifuged (50,000×g, 20 min) to remove solid matter. (A) The soluble cell extract was then used to perform Western blot analyses for RhoA and the MLC. This cell extract also was used for the co-IP-based ESI-MS analysis (FIG. 6). (B) A RhoA activity assay was colorimetrically determined using cell extract; the assay was performed with the RhoA G-LISA Activation Assay Kit (Cat. No. BK124) (Denver, Colo.). To examine the level of phosphorylation of the MLC, cells were cultured with ˜5 μCi of ^32P in 1 mL of phosphate-free DMEM. The collected cell extract was nutated with resin coupled with a macrophage myosin II antibody at 4° C. for 5 h. Resin was collected by centrifugation, and proteins bound to the resin were washed and eluted with a buffer (80° C.) containing […], 5 mM DTT, and 10 mM TrisHCl (pH 6.8). The immunoprecipitates were then analyzed by SDS-PAGE and autoradiographed. The values of RhoA activity and the MLC phosphorylation determined from untreated cells were set at 100%. […] The data represented in the figure represent the mean values of triplicate measurements, and the vertical error bar indicates standard errors.

MLC = MLC phosphorylation in A7r5 cells; type: cell-based, rat; settings: only NO donor, DETA/NO ≅10 μM, FIG. 20B
Description: as §9

T1 sequence (P08134 whole entry): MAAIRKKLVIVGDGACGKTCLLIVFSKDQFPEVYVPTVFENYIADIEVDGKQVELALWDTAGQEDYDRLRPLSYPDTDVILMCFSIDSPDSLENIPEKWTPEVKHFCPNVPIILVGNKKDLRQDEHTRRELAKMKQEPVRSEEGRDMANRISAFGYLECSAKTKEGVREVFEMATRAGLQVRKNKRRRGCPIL

SMILES | cell population with other 6-TG analogs (HME-RhoC cells [1]) | rate of 6-TGDP dissociation (RhoC [2]) | rate of 6-TGDP dissociation (RhoC C20S [3]) | rate of GDP dissociation (RhoC [4]) | rate of GDP dissociation (RhoC C20S [5]) | effect on RhoC activity (RhoC [6]) | effect on RhoC activity (RhoC C20S [7]) | effect on invasive cell motility (SUM149 cells [8]) | effect on invasive cell motility (HME-C20S RhoC cells [9]) | effect on invasive cell motility (HME-RhoC cells [10]) | also measured
Sc1ncnc2nc[nH]c12 [6-MP, 6-mercaptopurine] | decrease in the cell population | – | – | – | – | – | – | – | – | – | –
[N]=O [NO, nitric oxide] | – | 8e-05 s⁻¹ | 4e-05 s⁻¹ | 0.00019 s⁻¹ | 2e-05 s⁻¹ | – | – | – | – | – | –
Cn1cnc([N+](=O)[O-])c1Sc1ncnc2nc[nH]c12 [AZA, azathioprine] | decrease in the cell population | – | – | – | – | – | – | – | – | – | –
[O]N=O [.NO2, nitrogen dioxide] | – | 0.00265 s⁻¹ | 0.00627 s⁻¹ | 0.00604 s⁻¹ | 5e-05 s⁻¹ | – | – | – | – | – | –
N[C@@H](CCC(=O)N[C@@H](CSN=O)C(=O)NCC(=O)O)C(=O)O [GSNO, S-Nitrosoglutathione] | – | – | – | – | – | minimal | minimal | minimal | minimal | minimal | –
NCCN(CCN)/[N+]([O-])=N/O [DETA/NO, diethylenetriamine nitric oxide adduct] | – | – | – | – | – | minimal | minimal | minimal | minimal | minimal | cell viability and caspase activity (HME-RhoC cells [11]): minimally changed; cell viability and caspase activity (SUM149 cells [12]): minimally changed; cell viability and caspase activity (HME-C20S RhoC cells [13]): minimally changed; concentration of NO donor alone required for RhoA inactivation (RhoA; not shown): > 50 µM; RhoA inactivation (RhoA; only NO donor, DETA/NO ≅10 μM, FIG. 20B): minimal fraction of RhoA was inactivated; MLC dephosphorylation (MLC): sizable fraction of the MLC was dephosphorylated
